Patent publication US8063021B2, “Ketolide anti-infective compounds” (Kosan Biosciences Incorporated, priority 2003, dated 2011)
Where two headings read alike, the source gives them in different places.

Assays:
[1] = system: S. pneumoniae ATCC 700671; assay: microdilution assay MIC, S. pneumoniae ATCC 700671; format: cell-based, Streptococcus pneumoniae; settings: S. pneumoniae ATCC 700671, erythromycin sensitive strain, average where multiple assays
Description: (§1) In Table B, in some instances multiple assays were performed for a compound/strain combination, in which case the reported MIC is the average. S. pneumoniae ATCC 6301, ATCC 700671, and ATCC 49619 and S. aureus ATCC 6538p and ATCC 29213 are erythromycin sensitive strains.

S. pneumoniae ATCC 49619 = assay: microdilution assay MIC, S. pneumoniae ATCC 49619; format: cell-based, Streptococcus pneumoniae; settings: S. pneumoniae ATCC 49619, erythromycin sensitive strain, average where multiple assays
Description: as §1

[2] = system: S. pneumoniae ATCC 700676; assay: microdilution assay MIC, S. pneumoniae ATCC 700676; format: cell-based, Streptococcus pneumoniae
Description: as §1

[3] = system: S. pneumoniae ATCC 700905; assay: microdilution assay MIC, S. pneumoniae ATCC 700905; format: cell-based, Streptococcus pneumoniae
Description: as §1

S. aureus ATCC 29213 = assay: microdilution assay MIC, S. aureus ATCC 29213; format: cell-based, Staphylococcus aureus; settings: S. aureus ATCC 29213, erythromycin sensitive strain, average where multiple assays
Description: as §1

S. aureus ATCC 6538p = assay: microdilution assay MIC, S. aureus ATCC 6538p; format: cell-based, Staphylococcus aureus; settings: erythromycin sensitive strain, average where multiple assays
Description: as §1

[4] = system: S. pneumoniae ATCC 700677; assay: microdilution assay MIC, S. pneumoniae ATCC 700677; format: cell-based, Streptococcus pneumoniae
Description: as §1

E. faecalis ATCC 51575 = assay: microdilution assay MIC, E. faecalis ATCC 51575; format: cell-based, Enterococcus faecalis
Description: (§2) In Table B, in some instances multiple assays were performed for a compound/strain combination, in which case the reported MIC is the average.

[5] = system: S. pneumoniae ATCC 700906; assay: microdilution assay MIC, S. pneumoniae ATCC 700906; format: cell-based, Streptococcus pneumoniae
Description: as §2

S. pneumoniae ATCC 6301 = assay: microdilution assay MIC, S. pneumoniae ATCC 6301; format: cell-based, Streptococcus pneumoniae; settings: S. pneumoniae ATCC 6301, erythromycin sensitive strain, average where multiple assays
Description: as §1

[6] = system: S. epidermidis ATCC 12228; assay: microdilution assay MIC, S. epidermidis ATCC 12228; format: cell-based, Staphylococcus epidermidis
Description: as §1

S. aureus ATCC 14154 = assay: microdilution assay MIC, S. aureus ATCC 14154; format: cell-based, Staphylococcus aureus
Description: as §2

H. influenzae ATCC 9006 = assay: microdilution assay MIC, H. influenzae ATCC 9006; format: cell-based, Haemophilus influenzae
Description: as §1

H. influenzae ATCC 49766 = assay: microdilution assay MIC, H. influenzae ATCC 49766; format: cell-based, Haemophilus influenzae
Description: as §1

[7] = S. pneumoniae ATCC 700676, erythromycin A resistant strain, average where multiple assays
[8] = S. pneumoniae ATCC 700905, erythromycin A resistant strain, average where multiple assays
[9] = S. pneumoniae ATCC 700677, erythromycin A resistant strain, average where multiple assays
[10] = S. pneumoniae ATCC 700906, erythromycin A resistant strain, average where multiple assays
[11] = S. aureus ATCC 14154, erythromycin A resistant strain, average where multiple assays

Row | SMILES | MIC [1] [µg/mL] | MIC (S. pneumoniae ATCC 49619) [µg/mL] | MIC [2, 7] [µg/mL] | MIC [3, 8] [µg/mL] | MIC (S. aureus ATCC 29213) [µg/mL] | MIC (S. aureus ATCC 6538p) [µg/mL] | MIC [4, 9] [µg/mL] | MIC (E. faecalis ATCC 51575; average where multiple assays) [µg/mL] | MIC [5, 10] [µg/mL] | MIC (S. pneumoniae ATCC 6301) [µg/mL] | MIC ([6]; average where multiple assays) [µg/mL] | MIC (S. aureus ATCC 14154; [11]) [µg/mL] | MIC (H. influenzae ATCC 9006; average where multiple assays) [µg/mL] | MIC (H. influenzae ATCC 49766; average where multiple assays) [µg/mL] | further results
1 | CCN(C)CCC1OC(=O)C(C)C(=O)C(C)C(OC2OC(C)CC(N(C)C)C2O)C(C)(OC)CC(C)C(=O)C(C)C2NC(=O)OC12C (centres unmarked) [Compound 101] | 0.39 | 0.78 | 6.25 | 3.12 | 6.25 | 6.25 | >12.5 | 6.25 | >12.5 | 0.2 | 6.25 | 6.25 |  |  | 
2 | COC1(C)CC(C)C(=O)C(C)C2NC(=O)OC2(C)C(CCN(C)CCc2cccc(-c3ccco3)c2)OC(=O)C(C)C(=O)C(C)C1OC1OC(C)CC(N(C)C)C1O (centres unmarked) [Compound 103] | 0.049 | 0.049 | 0.049 | 0.049 | 0.39 | 0.098 | 0.098 | 12.5 | >12.5 | 0.049 | 0.049 | 0.39 | >12.5 | >12.5 | 
3 | COC1(C)CC(C)C(=O)C(C)C2NC(=O)OC2(C)C(CCNS(=O)(=O)c2cccc3ccccc23)OC(=O)C(C)C(=O)C(C)C1OC1OC(C)CC(N(C)C)C1O (centres unmarked) [Compound 106] | 0.01 | 0.01 | 0.01 | 0.01 | 0.025 | 0.01 | 0.01 | 0.025 | 12.5 | 0.01 | 0.025 | 3.12 | 6.25 | 6.25 | 
4 | COC1(C)CC(C)C(=O)C(C)C2NC(=O)OC2(C)C(CCNS(=O)(=O)c2ccc3ccccc3c2)OC(=O)C(C)C(=O)C(C)C1OC1OC(C)CC(N(C)C)C1O (centres unmarked) [Compound 107] | 0.01 | 0.01 | 0.01 | 0.01 | 0.025 | 0.01 | 0.01 | 0.025 | 3.12 | 0.01 | 0.025 | 1.56 | 12.5 | 12.5 | 
5 | COC1(C)CC(C)C(=O)C(C)C2NC(=O)OC2(C)C(CCN(Cc2cccc(-c3ccco3)c2)Cc2cccc(-c3ccco3)c2)OC(=O)C(C)C(=O)C(C)C1OC1OC(C)CC(N(C)C)C1O (centres unmarked) [Compound 104] | 3.12 | >12.5 | 6.25 | >12.5 | 6.25 | >12.5 | 6.25 | 12.5 | >12.5 | 3.12 | 6.25 | 6.25 | >12.5 | >12.5 | 
6 | CC[C@H]1OC(=O)[C@H](C)C(=O)[C@H](C)[C@@H](O[C@@H]2O[C@H](C)C[C@H](N(C)C)[C@H]2O)[C@](C)(OC)C[C@@H](C)C(=O)[C@H](C)[C@H]2N(CCCCn3cnc(-c4cccnc4)c3)C(=O)O[C@]12C [Tel, telithromycin, reference compound] |  |  |  |  |  |  |  |  |  |  |  |  |  |  | MIC ([1]; Streptococcus pneumoniae, ATCC700671, read-out: MIC): 0.025 µg/mL; MIC (S. pneumoniae ATCC 49619; Streptococcus pneumoniae, ATCC49619, read-out: MIC): 0.049 µg/mL; MIC ([2]; Streptococcus pneumoniae, ATCC700676, read-out: MIC): 0.098 µg/mL; MIC ([3]; Streptococcus pneumoniae, ATCC700905, read-out: MIC): 0.025 µg/mL; MIC (H. influenzae ATCC 9006; Haemophilus influenzae, ATCC9006, average where multiple assays, read-out: MIC): 1.56 µg/mL; MIC (S. aureus ATCC 29213; Staphylococcus aureus, ATCC29213, read-out: MIC): 0.025 µg/mL; MIC (S. aureus ATCC 6538p; Staphylococcus aureus, ATCC6538P, read-out: MIC): 0.025 µg/mL; MIC ([4]; Streptococcus pneumoniae, ATCC700677, read-out: MIC): 0.025 µg/mL; MIC (E. faecalis ATCC 51575; Enterococcus faecalis, ATCC51575, average where multiple assays, read-out: MIC): > 12.5 µg/mL; MIC ([5]; Streptococcus pneumoniae, ATCC700906, read-out: MIC): 0.2 µg/mL; MIC (H. influenzae ATCC 49766; Haemophilus influenzae, ATCC49766, average where multiple assays, read-out: MIC): 3.12 µg/mL; MIC (S. pneumoniae ATCC 6301; Streptococcus pneumoniae, ATCC6301, read-out: MIC): 0.025 µg/mL; MIC ([6]; Staphylococcus epidermidis, ATCC12228, average where multiple assays, read-out: MIC): 0.025 µg/mL; MIC (S. aureus ATCC 14154; Staphylococcus aureus, ATCC14154, read-out: MIC): > 12.5 µg/mL
7 | COC1(C)CC(C)C(=O)C(C)C2NC(=O)OC2(C)C(CCNS(=O)(=O)c2cccc3cccnc23)OC(=O)C(C)C(=O)C(C)C1OC1OC(C)CC(N(C)C)C1O (centres unmarked) [Compound 105] | 0.01 | 0.01 | 0.01 | 0.01 | 0.049 | 0.049 | 0.01 | 0.025 | 0.39 | 0.01 | 0.025 | 0.39 | 3.12 | 6.25 | 
8 | COC1(C)CC(C)C(=O)C(C)C2NC(=O)OC2(C)C(CCNS(=O)(=O)c2cccc(-c3ccco3)c2)OC(=O)C(C)C(=O)C(C)C1OC1OC(C)CC(N(C)C)C1O (centres unmarked) [Compound 108] | 0.025 | 0.025 | 0.025 | 0.025 | 0.025 | 0.025 | 0.025 | 0.025 | 0.049 | 0.025 | 0.025 | 0.049 | 12.5 | >12.5 | 
